Series [1] deals with T1, human type 1 glycine transporter (GlyT1) (Homo sapiens, UniProt P48067).
T1 construct: Used in the experiment were T98G cells (glioma cells) developing a human type 1 glycine transporter (GlyT1); endogenous in cells; host or cells: T98G human glioma cells
T1 sequence (P48067 1-706): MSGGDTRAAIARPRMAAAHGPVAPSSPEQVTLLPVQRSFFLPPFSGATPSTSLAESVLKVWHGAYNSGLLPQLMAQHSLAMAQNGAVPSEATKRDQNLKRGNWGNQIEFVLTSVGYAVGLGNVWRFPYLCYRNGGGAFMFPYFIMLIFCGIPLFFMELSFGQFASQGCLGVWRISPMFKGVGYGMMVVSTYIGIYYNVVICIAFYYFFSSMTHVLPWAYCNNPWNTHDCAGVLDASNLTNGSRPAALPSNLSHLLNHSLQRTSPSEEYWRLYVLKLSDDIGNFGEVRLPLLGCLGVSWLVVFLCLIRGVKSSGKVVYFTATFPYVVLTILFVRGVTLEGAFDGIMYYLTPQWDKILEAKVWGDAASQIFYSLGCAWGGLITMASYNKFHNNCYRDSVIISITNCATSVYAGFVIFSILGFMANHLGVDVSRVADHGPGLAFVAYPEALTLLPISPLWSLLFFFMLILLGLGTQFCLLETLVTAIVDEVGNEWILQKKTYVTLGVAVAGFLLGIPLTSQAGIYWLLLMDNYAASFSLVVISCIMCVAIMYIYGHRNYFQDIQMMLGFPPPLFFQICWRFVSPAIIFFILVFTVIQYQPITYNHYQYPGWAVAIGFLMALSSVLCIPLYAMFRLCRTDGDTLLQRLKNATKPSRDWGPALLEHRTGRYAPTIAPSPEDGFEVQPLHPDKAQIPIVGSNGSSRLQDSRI
Kind of series: Glycine uptake inhibition experiment ([3H] glycine uptake in T98G cells). It is filed as cell-based. Conditions: [3H] glycine 250 nM, read-out: IC50 (glycine uptake inhibiting activity). The method, then: A glycine uptake inhibition experiment was conducted in accordance with the method described in Neuron, 8, 927-935, 1992. Used in the experiment were T98G cells (glioma cells) developing a human type 1 glycine transporter (GlyT1). The T98G cells were seeded in a 96-well plate at a density of 2.0×10^4 cells per well and cultured overnight in a CO2 incubator. The test substance was first dissolved in a 100% DMSO solution and then dissolved in a 10 mM HEPES buffer solution (pH 7.4) supplemented with 150 mM sodium chloride, 1 mM calcium chloride, 5 mM potassium chloride, 1 mM magnesium chloride, 10 mM glucose, and 0.2% bovine serum albumin. After removing the cell culture medium, the test substance was subjected to a 10-min pretreatment. Thereafter, the test substance and [^3H] glycine (final concentration: 250 nM) were added to the cells and reaction was performed at room temperature for 15 minutes. After the end of the reaction, the extracellular fluid was aspirated with a manifold to remove the excess marker glycine present outside of the cells; thereafter, the cells were lysed with an aqueous solution of 0.5 M sodium hydroxide. The glycine content in the cells was determined by measuring the radioactivity in the cell lysate with a liquid scintillation counter. With the amount of glycine uptake in the presence of 10 μM ALX5407 being referred to as the nonspecific uptake, the amount of specific uptake was calculated by subtracting the amount of nonspecific uptake from the total amount of uptake in the absence of 10 μM ALX5407. In addition, glycine uptake inhibiting activity (IC50) was calculated from an inhibition curve for the concentration of the test substance ranging from 10^−9 to 10^−5 M.

The next series deals with T2, P-gp (Human MDR1) (Homo sapiens, UniProt P08183).
T2 construct: expressed in transfected cells; host or cells: LLC-GA5-COL 300 (LLC-PK1 pig kidney epithelial cells expressing human MDR1)
T2 sequence (P08183 whole entry): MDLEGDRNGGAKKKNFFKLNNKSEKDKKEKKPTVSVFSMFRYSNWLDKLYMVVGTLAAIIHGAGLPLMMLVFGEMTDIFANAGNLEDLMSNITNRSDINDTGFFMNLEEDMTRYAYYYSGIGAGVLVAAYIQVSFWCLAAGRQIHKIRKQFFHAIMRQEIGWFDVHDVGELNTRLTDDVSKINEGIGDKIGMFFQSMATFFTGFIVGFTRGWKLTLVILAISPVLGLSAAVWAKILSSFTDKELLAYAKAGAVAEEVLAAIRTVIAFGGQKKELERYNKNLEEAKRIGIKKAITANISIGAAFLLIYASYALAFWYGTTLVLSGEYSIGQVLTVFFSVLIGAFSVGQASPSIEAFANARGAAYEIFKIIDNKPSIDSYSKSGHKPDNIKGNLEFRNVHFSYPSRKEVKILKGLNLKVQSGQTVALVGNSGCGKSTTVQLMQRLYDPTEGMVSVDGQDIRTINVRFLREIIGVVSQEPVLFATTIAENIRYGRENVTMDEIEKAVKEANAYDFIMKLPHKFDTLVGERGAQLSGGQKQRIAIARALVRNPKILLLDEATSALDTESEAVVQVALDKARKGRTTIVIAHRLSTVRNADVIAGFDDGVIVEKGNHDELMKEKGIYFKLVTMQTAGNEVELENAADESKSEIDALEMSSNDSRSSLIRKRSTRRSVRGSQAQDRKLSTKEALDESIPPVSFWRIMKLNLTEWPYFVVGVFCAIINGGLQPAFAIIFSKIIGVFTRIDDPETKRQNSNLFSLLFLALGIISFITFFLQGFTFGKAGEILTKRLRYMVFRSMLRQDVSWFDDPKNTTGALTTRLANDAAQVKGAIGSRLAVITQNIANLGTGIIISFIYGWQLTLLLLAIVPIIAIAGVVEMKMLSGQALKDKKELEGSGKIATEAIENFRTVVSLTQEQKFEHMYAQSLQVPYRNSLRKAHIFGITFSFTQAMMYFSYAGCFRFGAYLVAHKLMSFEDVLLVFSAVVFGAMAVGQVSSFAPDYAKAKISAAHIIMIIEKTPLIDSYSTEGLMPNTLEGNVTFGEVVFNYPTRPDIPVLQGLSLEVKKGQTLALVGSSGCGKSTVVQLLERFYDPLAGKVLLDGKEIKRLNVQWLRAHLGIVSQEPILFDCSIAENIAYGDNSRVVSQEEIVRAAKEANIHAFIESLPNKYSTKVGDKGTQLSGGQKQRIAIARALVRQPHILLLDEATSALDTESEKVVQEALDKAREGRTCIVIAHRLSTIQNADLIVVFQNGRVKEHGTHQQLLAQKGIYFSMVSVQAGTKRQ
Kind of series: Test for recognizability of P-gp substrate (LLC-GA5-COL 300 cells). It is filed as in vitro ADME. As to conditions: 10 μM, criteria of Nature Reviews Drug Discovery (2010) 9, 215-236. The source says:
In order that drugs acting on the central nervous system will develop their efficacy, their passage from the blood to the brain is generally important. While various efflux transporters are present at the blood-brain barrier to control this passage of drugs, P-glylcoprotein (P-gp) is a typical example and inhibits the passage to the brain of any drugs that serve as the substrate for P-gp. Therefore, in the development of pharmaceuticals, nonrecognizability of a candidate drug as the substrate for P-gp is the key to its passage to the brain.
A test for recognizability of P-gp substrate was performed in accordance with a modified version of the methods described in J. Pharmacol. Exp. Ther. (1992) Vol. 263, No. 2, 840-845 and J. Biol. Chem. (1992) Vol. 267, No. 34, 24248-24252. […] A solution of an assay compound (a DMSO solution of the compound as diluted with HBSS and adjusted to a final concentration of 10 μM) was added to the donor side of the LLC-GA5-COL 300 cells and a prescribed amount of HBSS was collected from the acceptor side at given time intervals and the concentration of the assay compound in the collected sample was measured by LC-MS/MS. […]

Series [2] is described as follows: Membrane permeability experiment (PAMPA Evolution). The class given is in vitro ADME. Conditions: artificial lipid GIT-0, pH 4.0, 5.0, 6.2 and 7.4, marker metoprolol. The method, then: In the development of pharmaceuticals, membrane permeability is an important factor to consider from the viewpoint of relationship with the bodily absorption of a medicament to be administered orally. Compounds having high membrane permeability are expected to feature satisfactory absorption by the intestinal tract (see Pharmaceutical Research (2002) Vol. 19, No. 7, 921-925.)
A membrane permeability test was conducted using PAMPA Evolution™ (pION INC.) in accordance with a modified version of the recommended protocol of pION INC. To be more specific, solutions of an assay compound (i.e., a DMSO solution of the compound as diluted by being added to system solutions that had been adjusted to prescribed pHs (4.0, 5.0, 6.2, and 7.4)) were prepared and added to the lower compartment (donor) of a sandwich plate having a lipid bilayer membrane formed of an artificial lipid (GIT-0). An acceptor sink buffer was added to the upper compartment (acceptor) and after the lapse of a prescribed period, the cumulative permeation of the compound was measured by performing UV spectroscopy on the solutions in the donor and acceptor, and the membrane permeability coefficient Pe (×10^−6 cm/sec) was calculated to assay the membrane permeability of the compound.

Read-outs that look alike come from different tables or passages of the source. Where only a bound is given, the exact number is not on record here.

In general, IC50 refers to the concentration at which inhibition is half-maximal.

Consider `Cn1cnc(C(=O)N(Cc2ccc(F)c(OC(F)(F)F)c2)C2CCOCC2)n1` [Compound 49], for which the IC50 was 7.4 nM in series [1] (15 min, room temperature) and less than 100 nM in series [1]. Also, the “recognizability as P-gp substrate (efflux ratio basal→apical / apical→basal)” value at P-gp (Human MDR1) is on record as “not recognizable as the substrate for P-gp”.
With `Cn1cnc(C(=O)N(C2CCOCC2)C(CO)Cc2cccc(OC(F)(F)F)c2)c1` (stereo not drawn) [Compound 109], the IC50 in series [1] (15 min, room temperature) was 31.7 nM; in series [1] it was less than 100 nM. Also, the “membrane permeability coefficient Pe compared with metoprolol” value in series [2] is “higher Pe values than the high permeability marker compound metoprolol”.

The record behind these values is US8623898B2, “Glycine transporter inhibiting substances” (Taisho Pharmaceutical Co., Ltd., priority 2009, dated 2014).
